Columns and labels:
[1] = target: Human cGAS amino acids 155-522 (Homo sapiens (Human), UniProt Q8N884); assay: cGAS biochemical activity assay (ATP remaining, Kinase-Glo Max luminescence); conditions: human cGAS 155-522, ATP remaining (Kinase-Glo Max); read-out: cGAS IC50
[2] = test system: cGAS/STING pathway in THP1 cells; assay: THP1 cell-based cGAS/STING pathway activity assay (IRF-3-linked luciferase reporter); conditions: Homo sapiens, THP-1
How it was run: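 THP1 cells carrying an IRF-3-driven luciferase reporter were read across a range of compound concentrations, and IC50 values were derived from these concentration responses; the assay upper limit was 100 μM.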

Sequence of Human cGAS amino acids 155-522 (Q8N884 157-522): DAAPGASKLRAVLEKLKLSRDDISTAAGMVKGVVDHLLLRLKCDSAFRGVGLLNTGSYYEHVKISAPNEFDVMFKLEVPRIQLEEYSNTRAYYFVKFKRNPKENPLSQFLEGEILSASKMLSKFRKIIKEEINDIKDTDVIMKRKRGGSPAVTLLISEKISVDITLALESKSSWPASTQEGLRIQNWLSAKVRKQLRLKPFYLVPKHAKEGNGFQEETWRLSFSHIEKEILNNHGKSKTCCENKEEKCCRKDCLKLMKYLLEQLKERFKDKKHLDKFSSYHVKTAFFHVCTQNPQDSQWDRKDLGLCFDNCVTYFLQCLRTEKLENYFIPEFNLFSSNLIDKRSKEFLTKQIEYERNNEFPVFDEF

Compound	IC50 [1] [µM]	IC50 [2] [µM]
COc1cccc2oc(-c3c(COCCO)[nH]c4c(-c5ccccc5)c(C#N)nn4c3=O)nc12 [Compound C1248, 5-((2-hydroxyethoxy)methyl)-6-(4-methoxybenzo[d]oxazol-2-yl)-7-oxo-3-phenyl-4,7-dihydropyrazolo[1,5-a]pyrimidine-2-carbonitrile]	< 20	> 100
COc1cccc2oc(-c3c(C(=O)O)[nH]c4c(-c5ccccc5)c(C#N)nn4c3=O)nc12 [Compound C1249, 2-cyano-6-(4-methoxybenzo[d]oxazol-2-yl)-7-oxo-3-phenyl-4,7-dihydropyrazolo[1,5-a]pyrimidine-5-carboxylic acid]	< 20	> 100
COc1c(N)ccc2oc(-c3c(C)[nH]c4c(-c5ccccc5)c(C#N)nn4c3=O)nc12 [Compound C1250, 6-(5-amino-4-methoxybenzo[d]oxazol-2-yl)-5-methyl-7-oxo-3-phenyl-4,7-dihydropyrazolo[1,5-a]pyrimidine-2-carbonitrile]	< 20	> 100
COc1cccc2oc(-c3c(COCC4CNC(=O)O4)[nH]c4c(-c5ccccc5)c(C#N)nn4c3=O)nc12 (centres unmarked) [Compound C1251, 6-(4-methoxybenzo[d]oxazol-2-yl)-7-oxo-5-(((2-oxooxazolidin-5-yl)methoxy)methyl)-3-phenyl-4,7-dihydropyrazolo[1,5-a]pyrimidine-2-carbonitrile]	< 20	> 100
COc1cccc2oc(-c3c(C4CC(C(=O)O)C4)[nH]c4c(-c5ccccc5)c(C(F)(F)F)nn4c3=O)nc12 (centres unmarked) [Compound C1252, 3-(6-(4-methoxybenzo[d]oxazol-2-yl)-7-oxo-3-phenyl-2-(trifluoromethyl)-4,7-dihydropyrazolo[1,5-a]pyrimidin-5-yl)cyclobutane-1-carboxylic acid]	< 20	> 100
COc1cccc2oc(-c3c(-c4conc4C)[nH]c4c(-c5ccccc5)c(C(F)(F)F)nn4c3=O)nc12 [Compound C1253, 6-(4-methoxybenzo[d]oxazol-2-yl)-5-(3-methylisoxazol-4-yl)-3-phenyl-2-(trifluoromethyl)pyrazolo[1,5-a]pyrimidin-7(4H)-one]	< 20	20 to 100
COc1cccc2oc(-c3c(-c4cn[nH]c4)[nH]c4c(-c5ccccc5)c(C(F)(F)F)nn4c3=O)nc12 [Compound C1254, 6-(4-methoxybenzo[d]oxazol-2-yl)-3-phenyl-5-(1H-pyrazol-4-yl)-2-(triluoromethyl)pyrazolo[1,5-a]pyrimidin-7(4H)-one]	< 20	> 100
COc1cccc2oc(-c3c(-c4cnn(C)c4)[nH]c4c(-c5ccccc5)c(C(F)(F)F)nn4c3=O)nc12 [Compound C1255, 6-(4-methoxybenzo[d]oxazol-2-yl)-5-(1-methyl-1H-pyrazol-4-yl)-3-phenyl-2-(trifluoromethyl)pyrazolo[1,5-a]pyrimidin-7(4H)-one]	< 20	> 100
COc1cccc2oc(-c3c(C(=O)Nc4ccn(C)n4)[nH]c4c(-c5ccccc5)c(C(F)(F)F)nn4c3=O)nc12 [Compound C1256, 6-(4-methoxybenzo[d]oxazol-2-yl)-N-(1-methyl-1H-pyrazol-3-yl)-7-oxo-3-phenyl-2-(trifluoromethyl)-4,7-dihydropyrazolo[1,5-a]pyrimidine-5-carboxamide]	< 20	> 100
COc1cccc2oc(-c3c(N4CCCC(C(=O)O)C4)[nH]c4c(-c5ccccc5)c(C(F)(F)F)nn4c3=O)nc12 (centres unmarked) [Compound C1257, 1-(6-(4-methoxybenzo[d]oxazol-2-yl)-7-oxo-3-phenyl-2-(trifluoromethyl)-4,7-dihydropyrazolo[1,5-a]pyrimidin-5-yl)piperidine-3-carboxylic acid]	< 20	> 100
COc1cccc2oc(-c3c(N4CCOCC4)[nH]c4c(-c5ccccc5)c(C(F)(F)F)nn4c3=O)nc12 [Compound C1258, 6-(4-methoxybenzo[d]oxazol-2-yl)-5-morpholino-3-phenyl-2-(trifluoromethyl)pyrazolo[1,5-a]pyrimidin-7(4H)-one]	< 20	< 20
COc1cccc2oc(-c3c(COC4COC4)[nH]c4c(-c5ccccc5)c(C#N)nn4c3=O)nc12 [Compound C1259, 6-(4-methoxybenzo[d]oxazol-2-yl)-5-((oxetan-3-yloxy)methyl)-7-oxo-3-phenyl-4,7-dihydropyrazolo[1,5-a]pyrimidine-2-carbonitrile]	< 20	> 100
Cc1[nH]c2c(C(C)C)c(C(F)(F)F)nn2c(=O)c1-c1ccccc1 [Compound C1269, 3-isopropyl-5-methyl-6-phenyl-2-(trifluoromethyl)pyrazolo[1,5-a]pyrimidin-7(4H)-one]	> 250	20 to 100
Cc1[nH]c2c(-c3ccccc3)c(C#N)nn2c(=O)c1-c1nc2ccc(N)c(Cl)c2o1 [Compound C1271, 6-(6-amino-7-chlorobenzo[d]oxazol-2-yl)-5-methyl-7-oxo-3-phenyl-4,7-dihydropyrazolo[1,5-a]pyrimidine-2-carbonitrile]	< 20	> 100
Cc1[nH]c2c(-c3ccccc3)c(C#N)nn2c(=O)c1-c1nc2c(N(C)C)cccc2o1 [Compound C1272, 6-(4-(dimethylamino)benzo[d]oxazol-2-yl)-5-methyl-7-oxo-3-phenyl-4,7-dihydropyrazolo[1,5-a]pyrimidine-2-carbonitrile]	< 20	< 20
Cc1[nH]c2c(-c3ccccc3)c(C#N)nn2c(=O)c1-c1ccccc1 [Compound C1273, 5-methyl-7-oxo-3,6-diphenyl-4,7-dihydropyrazolo[1,5-a]pyrimidine-2-carbonitrile]	< 20	< 20
CNc1cccc2oc(-c3c(C)[nH]c4c(-c5ccccc5)c(C#N)nn4c3=O)nc12 [Compound C1274, 5-methyl-6-(4-(methylamino)benzo[d]oxazol-2-yl)-7-oxo-3-phenyl-4,7-dihydropyrazolo[1,5-a]pyrimidine-2-carbonitrile]	< 20	> 100
Cc1[nH]c2c(-c3ccccc3)c(C#N)nn2c(=O)c1-c1nc2cnccc2o1 [Compound C1275, 5-methyl-6-(oxazolo[4,5-c]pyridin-2-yl)-7-oxo-3-phenyl-4,7-dihydropyrazolo[1,5-a]pyrimidine-2-carbonitrile]	< 20	> 100

Next, values leading:

IC50 [1] [µM]	IC50 [2] [µM]	Compound
< 20	> 100	Cc1[nH]c2c(-c3ccccc3)c(C(F)(F)F)nn2c(=O)c1-c1nnc(C2CCCCC2)o1 [Compound D1004, 6-(5-cyclohexyl-1,3,4-oxadiazol-2-yl)-5-methyl-3-phenyl-2-(trifluoromethyl)pyrazolo[1,5-a]pyrimidin-7(4H)-one]
> 250	20 to 100	Cc1[nH]c2c(-c3ccccc3)c(C(F)(F)F)nn2c(=O)c1-c1nnc(-c2ccco2)o1 [Compound D1007, 6-(5-(furan-2-yl)-1,3,4-oxadiazol-2-yl)-5-methyl-3-phenyl-2-(trifluoromethyl)pyrazolo[1,5-a]pyrimidin-7(4H)-one]
20 to 250	> 100	Cc1[nH]c2c(-c3ccccc3)c(C(F)(F)F)nn2c(=O)c1-c1nnc(C(C)(O)C(F)(F)F)o1 (centres unmarked) [Compound D1008, 5-methyl-3-phenyl-6-(5-(1,1,1-trifluoro-2-hydroxypropan-2-yl)-1,3,4-oxadiazol-2-yl)-2-(trifluoromethyl)pyrazolo[1,5-a]pyrimidin-7(4H)-one]
< 20	> 100	Cc1[nH]c2c(-c3ccccc3)c(C(F)(F)F)nn2c(=O)c1-c1nnc(C2CCCO2)o1 (centres unmarked) [Compound D1012, 5-methyl-3-phenyl-6-(5-(tetrahydrofuran-2-yl)-1,3,4-oxadiazol-2-yl)-2-(trifluoromethyl)pyrazolo[1,5-a]pyrimidin-7(4H)-one]
< 20	> 100	Cc1[nH]c2c(-c3ccccc3)c(C(F)(F)F)nn2c(=O)c1-c1nnc(N2CCCC2)o1 [Compound D1014, 5-methyl-3-phenyl-6-(5-(pyrrolidin-1-yl)-1,3,4-oxadiazol-2-yl)-2-(trifluoromethyl)pyrazolo[1,5-a]pyrimidin-7(4H)-one]
20 to 250	> 100	Cc1[nH]c2c(-c3ccccc3)c(C(F)(F)F)nn2c(=O)c1-c1nnc(C2CCCOC2)o1 (centres unmarked) [Compound D1015, 5-methyl-3-phenyl-6-(5-(tetrahydro-2H-pyran-3-yl)-1,3,4-oxadiazol-2-yl)-2-(trifluoromethyl)pyrazolo[1,5-a]pyrimidin-7(4H)-one]
< 20	> 100	Cc1[nH]c2c(-c3ccccc3)c(C(F)(F)F)nn2c(=O)c1-c1nnc(C2CCOCC2)o1 [Compound D1016, 5-methyl-3-phenyl-6-(5-(tetrahydro-2H-pyran-4-yl)-1,3,4-oxadiazol-2-yl)-2-(trifluoromethyl)pyrazolo[1,5-a]pyrimidin-7(4H)-one]
< 20	> 100	COCc1nnc(-c2c(C)[nH]c3c(-c4ccccc4)c(C(F)(F)F)nn3c2=O)o1 [Compound D1019, 6-(5-(methoxymethyl)-1,3,4-oxadiazol-2-yl)-5-methyl-3-phenyl-2-(trifluoromethyl)pyrazolo[1,5-a]pyrimidin-7(4H)-one]
< 20	> 100	Cc1[nH]c2c(-c3ccccc3)c(C(F)(F)F)nn2c(=O)c1-c1nnc(N2CCCCC2)o1 [Compound D1020, 5-methyl-3-phenyl-6-(5-(piperidin-1-yl)-1,3,4-oxadiazol-2-yl)-2-(trifluoromethyl)pyrazolo[1,5-a]pyrimidin-7(4H)-one]
< 20	> 100	Cc1[nH]c2c(-c3ccccc3)c(C(F)(F)F)nn2c(=O)c1-c1nnc(N2CCCC2C)o1 (centres unmarked) [Compound D1022, 5-methyl-6-(5-(2-methylpyrrolidin-1-yl)-1,3,4-oxadiazol-2-yl)-3-phenyl-2-(trifluoromethyl)pyrazolo[1,5-a]pyrimidin-7(4H)-one]

— patent US10738056B2 (Aduro BioTech, Inc., priority 2017, dated 2020)
